For one assay, the target named is T1, Gαi1 (Homo sapiens, UniProt P63096).
T1 construct: made in house; host or cells: cell-free TnT reticulocyte lysate system (Promega), T7 promoter
In words: R6A-1 competition/equilibrium binding. As to conditions: relative to unmodified peptide. As to the method:
FIG. 2. Relative Peptide Affinities. (A) Radiolabeled Gαi1 was incubated with immobilized, biotinylated R6A and varying concentrations of either R6A (▾), unmodified peptide (▴), or N-Me-K (♦) for 3 hr. at 4° C. The radiolabel bound was normalized to that which bound in the absence of competitor. The plotted values represent the mean of three experimental values and the error bars correspond to the standard deviation. (B) Experimentally determined binding data is shown above. The error is calculated based on the standard error of the mean (SEM) for the log IC50 using GraphPad 5.0.
R6A-1 Competition/Equilibrium Binding: R6A (MSQTKRLDDQLYWWEYL) and Bio-R6A (Bio-MSQTKRLDDQLYWWEYL) were synthesized by previously described methods. This peptide was immobilized to NeutrAvidin beads (Promega) using the manufacturer's instructions. Gαi1 was expressed using the TnT reticulocyte lysate system (T7 promoter, Promega). (250 ng) plasmid DNA and (25 μCi) L-35S-Met (MP Biomedicals) were used in an (25 μL) expression. […] Specific Activity was measured by TCA precipitation.
400 pmol immobilized R6A, and (100,000 cpm) Gαi1 were suspended in (1 mL) HBS-EP buffer. Varying quantities of free peptide (R6A, Unmodified peptide, or N-Me-K) were added. […] After the final wash, the immobilized sample was transferred to scintillation vials and analyzed by scintillation counting. […]

The target in assay [1] is T2, Gαi1·GDP (Homo sapiens, UniProt P63096). Kind of assay: TnT pulldown binding of N-methyl peptide library. The arrangement: made in house; host or cells: cell-free TnT coupled transcription/translation system (Promega); cDNA clone from UMR cDNA Resource Center. Conditions: compared with unmodified peptide. How it is done: Binding affinity of N-methyl peptide library: TnT pulldown experiments were carried out as described in [10] with some modifications. Human cDNA clones encoding G proteins with the pcDNA3.1+ vector (Invitrogen) were obtained from the UMR cDNA Resource Center (www.cdna.org). The DNA clones for Gαi1, and HRas were translated into 35S-Met labeled proteins using a TnT coupled transcription/translation system (Promega). Translation reactions were desalted using G-25 spin columns (GE Healthcare) and the translation yield was calculated by TCA precipitation. Equal amounts of each labeled subunit were added to (5 μL) neutravidin-agarose containing (2 nmol) pre-bound biotin labeled peptide in (1 mL) HBS-EP buffer. Control neutravidin-agarose beads were loaded with (d)-biotin (Anaspec). Binding reactions proceeded for 2 hrs at 4° C. followed by filtration and washing with HBS-EP. The matrix was analyzed by scintillation counting and the percent bound was determined by the matrix counts divided by the total counts as determined by TCA precipitation. Values were normalized to the percent bound of unmodified peptide.

The target in assay [2] is T2, Gαi1·GDP. As to conditions: binding to Gαi1·GDP; literature value; cited from earlier work.

Here are results for three substances from patent publication US20090325314A1, “N-Methyl Scanning Mutagenesis” (UNIVERSITY OF SOUTHERN CALIFORNIA, priority 2008, published 2009).

Where no end group is shown, it is not given here. [ ]: non-standard residue; d: D form. NMeK = CN[C@@H](CCCCN)C(=O)O

T2 sequence (P63096 whole entry): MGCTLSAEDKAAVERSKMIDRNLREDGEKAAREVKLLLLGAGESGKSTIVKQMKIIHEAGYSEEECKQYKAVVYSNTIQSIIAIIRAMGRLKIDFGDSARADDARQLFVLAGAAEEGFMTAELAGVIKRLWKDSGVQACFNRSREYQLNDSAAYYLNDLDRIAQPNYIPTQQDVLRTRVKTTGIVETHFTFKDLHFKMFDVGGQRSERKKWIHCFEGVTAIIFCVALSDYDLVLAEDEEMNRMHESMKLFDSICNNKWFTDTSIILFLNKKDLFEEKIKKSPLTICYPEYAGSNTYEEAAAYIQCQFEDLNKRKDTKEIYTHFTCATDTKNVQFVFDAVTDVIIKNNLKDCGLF
T1 sequence (P63096 whole entry): as above

At Gαi1 (equilibrium competition with R6A), NNNNND[NMeK]LYWWEFL [N-Me-K] showed a ΔΔG of -0.50 kcal/mol. The “enhanced binding (fold) by equilibrium competition using the R6A peptide” value on Gαi1 (immobilized R6A, radiolabeled Gαi1, 3 hr at 4° C.) is 2.5 fold. Besides, the “peptide binding affinity to Gαi1·GDP (qualitative)” value on Gαi1·GDP [1] was “increased binding affinity”.
For the substance DKLYWWEFL, the Kd (commonly the constant that tells how readily two partners part at equilibrium) at Gαi1·GDP [2] is 200 nM.
On to MSQTKRLDDQLYWWEYL [Compound R6A], for which the Kd at Gαi1·GDP [2] is 60 nM.
